# Laboratory results from the supplement of paper PMC10307832.
# What was measured:
# Experiment in all cases: relative viability (nuclei count vs DMSO), 5 days (fraction); higher = more cells survive
# [1] = system: HCC-15
# Procedure, shortened: (§1)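 After 5 days of treatment, lung cancer cells in 1536-well plates were fixed and stained in a single step (final 0.05% Triton X-100, 1% formaldehyde, 1 ug/ml Hoechst) and their nuclei counted on 4× images. Treatment had been applied by pin tool the day after seeding as one drug alone or as a fixed anchor-drug dose with five library-drug doses (not always all listed) in √10 steps. Relative viability is the nuclei count of treated wells divided by that of vehicle wells, and values are medians of duplicate plates.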
# [2] = system: COR-L 105
# Procedure, shortened: as §1
# [3] = system: HCC-78
# Procedure, shortened: as §1
# [4] = system: NCI-H1755
# Procedure, shortened: as §1
# [5] = system: ABC-1
# Procedure, shortened: as §1
# [6] = system: NCI-H1993
# Procedure, shortened: as §1
# [7] = system: UMC-11
# Procedure, shortened: as §1
# [8] = system: NCI-H1975
# Procedure, shortened: as §1
# [9] = system: NCI-H322M
# Procedure, shortened: as §1
# [10] = system: NCI-H441
# Procedure, shortened: as §1
# [11] = system: EMC-BAC-2
# Procedure, shortened: as §1
smiles,measurement,setting,value
NC(=O)Nc1cc(-c2cccc(F)c2)sc1C(=O)N[C@H]1CCCNC1 [AZD7762] + C[C@]1(O)C[C@@H](c2nc(-c3ccc4ccc(-c5ccccc5)nc4c3)c3c(N)nccn32)C1 [Linsitinib] (partner 1 µM),relative viability,[1]; first compound 0.01 µM,0.886
same,relative viability,[1]; first compound 0.03162 µM,0.918
same,relative viability,[1]; first compound 0.1 µM,0.915
same,relative viability,[1]; first compound 0.3162 µM,0.93
same,relative viability,[1]; first compound 1 µM,0.985
same,relative viability,[2]; first compound 0.01 µM,0.855
same,relative viability,[2]; first compound 0.03162 µM,0.921
same,relative viability,[2]; first compound 0.1 µM,0.748
same,relative viability,[2]; first compound 0.3162 µM,0.662
same,relative viability,[2]; first compound 1 µM,0.393
same,relative viability,[3]; first compound 0.01 µM,0.624
same,relative viability,[3]; first compound 0.03162 µM,0.553
same,relative viability,[3]; first compound 0.1 µM,0.581
same,relative viability,[3]; first compound 0.3162 µM,0.519
same,relative viability,[3]; first compound 1 µM,0.345
same,relative viability,[4]; first compound 0.01 µM,1.03
same,relative viability,[4]; first compound 0.03162 µM,1.06
same,relative viability,[4]; first compound 0.1 µM,1.06
same,relative viability,[4]; first compound 0.3162 µM,1.03
same,relative viability,[4]; first compound 1 µM,0.646
same,relative viability,[5]; first compound 0.01 µM,1.08
same,relative viability,[5]; first compound 0.03162 µM,0.839
same,relative viability,[5]; first compound 0.1 µM,0.925
same,relative viability,[5]; first compound 0.3162 µM,0.409
same,relative viability,[5]; first compound 1 µM,0.278
same,relative viability,[6]; first compound 0.01 µM,0.743
same,relative viability,[6]; first compound 0.03162 µM,0.678
same,relative viability,[6]; first compound 0.1 µM,0.666
same,relative viability,[6]; first compound 0.3162 µM,0.73
same,relative viability,[6]; first compound 1 µM,0.717
same,relative viability,[7]; first compound 0.01 µM,1.03
same,relative viability,[7]; first compound 0.03162 µM,0.956
same,relative viability,[7]; first compound 0.1 µM,0.976
same,relative viability,[7]; first compound 0.3162 µM,0.689
same,relative viability,[7]; first compound 1 µM,0.551
same,relative viability,[8]; first compound 0.01 µM,1.07
same,relative viability,[8]; first compound 0.03162 µM,0.888
same,relative viability,[8]; first compound 0.1 µM,0.881
same,relative viability,[8]; first compound 0.3162 µM,0.681
same,relative viability,[8]; first compound 1 µM,0.482
same,relative viability,[9]; first compound 0.01 µM,1.02
same,relative viability,[9]; first compound 0.03162 µM,1.03
same,relative viability,[9]; first compound 0.1 µM,0.92
same,relative viability,[9]; first compound 0.3162 µM,0.987
same,relative viability,[9]; first compound 1 µM,0.84
same,relative viability,[10]; first compound 0.01 µM,0.656
same,relative viability,[10]; first compound 0.03162 µM,0.744
same,relative viability,[10]; first compound 0.1 µM,0.657
same,relative viability,[10]; first compound 0.3162 µM,0.823
same,relative viability,[10]; first compound 1 µM,0.67
same,relative viability,[11]; first compound 0.01 µM,0.795
same,relative viability,[11]; first compound 0.03162 µM,0.806
same,relative viability,[11]; first compound 0.1 µM,0.799
same,relative viability,[11]; first compound 0.3162 µM,0.799
same,relative viability,[11]; first compound 1 µM,0.809
